# Data as given in US8258158B2 (Hoffmann-La Roche Inc., priority 2009, dated 2012).
# Biological target: T1, human HSL (Homo sapiens, UniProt Q05469)
# T1 construct: overlapping PCR to generate a full length human HSL ORF with a 3′-His6 tag; His6 (C); made in house; host or cells: High 5 insect cells (baculovirus, pFast-BAC)
# T1 sequence (Q05469 1-1076): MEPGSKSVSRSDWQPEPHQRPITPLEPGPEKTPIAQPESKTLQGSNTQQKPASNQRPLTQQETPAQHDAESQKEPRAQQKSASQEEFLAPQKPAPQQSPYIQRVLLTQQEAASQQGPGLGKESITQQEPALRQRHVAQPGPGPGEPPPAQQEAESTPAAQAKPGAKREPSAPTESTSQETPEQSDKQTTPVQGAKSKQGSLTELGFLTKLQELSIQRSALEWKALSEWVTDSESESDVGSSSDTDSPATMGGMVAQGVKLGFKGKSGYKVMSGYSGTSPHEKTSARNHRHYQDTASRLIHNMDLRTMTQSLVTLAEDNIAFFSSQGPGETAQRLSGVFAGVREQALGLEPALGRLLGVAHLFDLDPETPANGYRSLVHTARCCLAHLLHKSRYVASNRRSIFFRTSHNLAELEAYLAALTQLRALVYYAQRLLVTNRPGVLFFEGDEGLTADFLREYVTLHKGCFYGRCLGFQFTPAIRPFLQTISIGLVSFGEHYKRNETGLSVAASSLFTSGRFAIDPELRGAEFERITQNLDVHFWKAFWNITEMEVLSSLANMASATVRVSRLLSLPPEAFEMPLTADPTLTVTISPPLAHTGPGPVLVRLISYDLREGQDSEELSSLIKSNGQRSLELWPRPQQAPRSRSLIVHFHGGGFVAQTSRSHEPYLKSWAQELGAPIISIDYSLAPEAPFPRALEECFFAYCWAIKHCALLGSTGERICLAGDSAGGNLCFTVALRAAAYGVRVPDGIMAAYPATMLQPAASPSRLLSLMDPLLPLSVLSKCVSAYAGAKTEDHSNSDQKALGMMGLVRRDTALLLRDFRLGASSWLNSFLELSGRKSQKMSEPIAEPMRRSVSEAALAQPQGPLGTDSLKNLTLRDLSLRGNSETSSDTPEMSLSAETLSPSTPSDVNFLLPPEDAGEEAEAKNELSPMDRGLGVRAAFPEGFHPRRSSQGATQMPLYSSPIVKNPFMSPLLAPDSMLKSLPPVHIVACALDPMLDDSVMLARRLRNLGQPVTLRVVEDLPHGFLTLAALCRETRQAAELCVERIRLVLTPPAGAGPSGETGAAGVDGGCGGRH
# Experiment: Human hormone-sensitive lipase (HSL) enzyme inhibition assay (colorimetric, DMPT substrate)
# Type: biochemical
# Conditions: human full length HSL-His6; 2,3-dimercapto-1-propanol tributyrate substrate; 37° C., 20 minutes; read-out: HSL hum IC50
# Description: Production of Human Full Length Hormone Sensitive Lipase-His^6:
# 1) Cloning: cDNA was prepared from commercial human brain polyA+ RNA and used as a template in overlapping PCR to generate a full length human HSL ORF with a 3′-His6 tag. This full length insert was cloned into the pFast-BAC vector and the DNA-sequence of several single clones was verified. DNA from a correct full length clone with the 3′His6 tag was used to transform the E. coli strain DH10BAC. Resulting bacmid DNA was used to generate a titered baculovirus stock for protein generation. The sequence of the encoded HSL conforms to Swissprot entry Q05469, with the additional C-terminal His6-tag.
# 2) Protein purification: Culture: 5.5 L, High 5 cells expressing human full length HSL-His^6, 48 hr., containing 25 μM E-64. Cell count: […], 90% viable. Cells were thawed. On ice, cells were suspended in Base Buffer containing 10% glycerol, 25 mM Tris-Cl, 300 mM NaCl, 10 mM imidazole, 10 mM 2-mercaptoethanol, 2 μg pepstatin/ml, 2 μg leupeptin/ml, 2 μg antipain/ml, pH 8.0 at 4° C. in a final volume of 475 ml with 3.75×10^7 cells/ml. […] was done at 3×30 sec., Lubrol PX was added to 0.2% final concentration followed by stirring for 15 min. at 4° C. and centrifugation at 25 k×g, 60 min., 4° C. Soluble proteins were mixed with 60 ml of pre-washed and equilibrated Ni-NTA Agarose (Qiagen 30210) followed by tumbling end-over-end, 45 min., 4° C., centrifugation 1000 rpm 5 min and letting resin settle 5 min. Supernatant was removed, the resin washed in the centrifuge vessel using 5 volumes of Base Buffer containing 0.2% Lubrol PX. Centrifugation was done again, then the supernatant discarded. The resin was poured onto a 0.8 μm membrane in a disposable filter unit (Nalge 450-0080), and washed with 5 volumes of Base Buffer containing 0.2% Lubrol PX. It was then washed with 30 volumes of Base Buffer containing 60 mM imidazole pH 7.5 at 4° C. The protein was eluated with 5 volumes of 25 mM Tris-Cl, 300 mM NaCl, 200 mM imidazole, 10 mM 2-mercaptoethanol, pH 7.5 at 4° C. by tumbling resin with buffer end-over-end, 30 min., 4° C. The resin was captured on a 0.2 μm membrane disposable filter unit (Millipore SCGP U02 RE) and the eluate collected in the reservoir. The eluate was concentrated using a 30 k MWCO centrifugal filter device (Sartorius Vivascience Vivacell 100, VC1022), to 20 ml. It was then dialyzed overnight at 4° C., two times against 2 L of 10% glycerol, 25 mM Tris-Cl, 300 mM NaCl, 0.2 mM EDTA, 0.2 mM DTT, pH 7.5 at 4° C. The protein was filtered using a 0.22 μm disposable filter unit (Millipore SCGP00525). The protein concentration was calculated from absorbance at 280 nm, using 280=0.67 cm-1 mg-1. Yield was 235 mg, total. The protein was stored at −80° C.
# Human Hormone-Sensitive Lipase (HSL) Enzyme Inhibition Assay:
# HSL enzyme activity was measured by a colorimetric assay using 2,3-dimercapto-1-propanol tributyrate (Aldrich, St. Louis, Mo.) as a substrate. Typically, 1.5 mM 2,3-dimercapto-1-propanol tributyrate (DMPT) in 100 mM MOPS, pH 7.2, 0.2 mg/ml fatty acid-free BSA was prepared by sonication at 4° C. to homogenous suspension. Test compounds (2 mM stock in DMSO) were diluted 3 fold in series in DMSO. Compound solutions were diluted 24 fold in 1.5 mM DMPT containing solution and 18 ul per well was added to 384-well microplates (Corning Costar). Twelve microliters per well of human HSL (15 ug/ml) was added and the reaction mixture was incubated at 37° C. for 20 minutes. Six microliters of 12 mM dithio-bis-(2-nitrobenzoic acid) (DTNB) in DMSO plus 1.2% SDS and 0.6% Triton X-100 were added and the mixture was incubated at room temperature for 15 minutes. Product production was monitored by reading absorbance at 405 nm on an Envision Reader (PerkinElmer Life and Analytical Sciences, Shelton, Conn.).
row,IC50 [nM],Structure (SMILES)
1,90,"Cc1ccc(S(=O)(=O)N2CCC(C(=O)Nc3ccc(OC(C)C(F)(F)F)cc3)CC2)cc1 (racemic) [Example 25, (rac)-1-(toluene-4-sulfonyl)-piperidine-4-carboxylic acid [4-(2,2,2-trifluoro-1-methyl-ethoxy)-phenyl]-amide]"
2,920,"Cc1ccc(S(=O)(=O)N2CCC(F)(C(=O)Nc3ccc(OC(C)C(F)(F)F)cc3)CC2)cc1 (racemic) [Example 32, (rac-4-Fluoro-1-(toluene-4-sulfonyl)-piperidine-4-carboxylic acid [4-(2,2,2-trifluoro-1-methyl-ethoxy)-phenyl]-amide]"
3,530,"O=C(NCC1(c2ccc(Cl)cc2)CC1)C1CCN(S(=O)(=O)c2ccccc2)CC1 [Example 62, 1-Benzenesulfonyl-piperidine-4-carboxylic acid [1-(4-chloro-phenyl)-cyclopropylmethyl]-amide]"
4,40,"O=C(Nc1ccc(OC(F)(F)F)cc1)C1CCN(S(=O)(=O)c2ccccc2)CC1 [Example 46, 1-Benzenesulfonyl-piperidine-4-carboxylic acid (4-trifluoromethoxy-phenyl)-amide]"
5,350,"CC(C)c1ccc(NC(=O)C2CCN(C(=O)CCC3CC3)CC2)cc1 [Example 9, 1-(3-Cyclopropyl-propionyl)-piperidine-4-carboxylic acid (4-isopropyl-phenyl)-amide]"
6,660,"COC(COc1ccc(NC(=O)C2CCN(S(=O)(=O)c3ccc(C)cc3)CC2)cc1)C(F)(F)F (racemic) [Example 53, (rac)-1-(Toluene-4-sulfonyl)-piperidine-4-carboxylic acid [4-(3,3,3-trifluoro-2-methoxy-propoxy)-phenyl]-amide]"
7,40,"Cc1ccc(S(=O)(=O)N2CCC(C(=O)N(C)c3ccc(OC(F)(F)F)cc3)CC2)cc1 [Example 16, 1-(Toluene-4-sulfonyl)-piperidine-4-carboxylic acid methyl-(4-trifluoromethoxy-phenyl)-amide]"
8,700,"Cc1ccc(S(=O)(=O)N2CCC(C(=O)Nc3ccc(CCO)cc3)CC2)cc1 [Example 22, 1-(Toluene-4-sulfonyl)-piperidine-4-carboxylic acid [4-(2-hydroxy-ethyl)-phenyl]-amide]"
9,70,"Cc1ccc(S(=O)(=O)N2CCC(C(=O)Nc3ccc(O[C@H](CCO)C(F)(F)F)cc3)CC2)cc1 [Example 60, 1-(Toluene-4-sulfonyl)-piperidine-4-carboxylic acid [4-((R)-3-hydroxy-1-trifluoromethyl-propoxy)-phenyl]-amide]"
10,1130,"CCn1nc(NC(=O)C2CCN(S(=O)(=O)c3ccccc3)CC2)cc1C(F)(F)F [Example 35, 1-Benzenesulfonyl-piperidine-4-carboxylic acid (1-ethyl-5-trifluoromethyl-1H-pyrazol-3-yl)-amide]"
11,860,"Cc1ccc(S(=O)(=O)N2CCC(C(=O)Nc3ccc(OCC(O)C(F)(F)F)cc3)CC2)cc1 (racemic) [Example 52, (rac)-1-(Toluene-4-sulfonyl)-piperidine-4-carboxylic acid [4-(3,3,3-trifluoro-2-hydroxy-propoxy)-phenyl]-amide]"
12,740,"Cc1ccc(S(=O)(=O)N2CCC(F)(C(=O)Nc3ccc(OC(C)C)cc3)CC2)cc1 [Example 19, 4-Fluoro-1-(toluene-4-sulfonyl)-piperidine-4-carboxylic acid (4-isopropoxy-phenyl)-amide]"
13,480,"Cc1ccc(S(=O)(=O)N2CCC(C)(C(=O)Nc3ccc(OC(F)(F)F)cc3)CC2)cc1 [Example 31, 4-Methyl-1-(toluene-4-sulfonyl)-piperidine-4-carboxylic acid (4-trifluoromethoxy-phenyl)-amide]"
14,40,"CC(C)Oc1ccc(NC(=O)C2CCN(S(=O)(=O)c3ccccc3Cl)CC2)cc1 [Example 39, 1-(2-Chloro-benzenesulfonyl)-piperidine-4-carboxylic acid (4-isopropoxy-phenyl)-amide]"
15,110,"COC[C@@H]1C[C@@H](C(=O)Nc2ccc(OC(F)(F)F)cc2)CCN1S(=O)(=O)c1ccc(C)cc1 (racemic) [Example 23, Racemic Mixture of Example 23a which is (2S,4S)-2-Methoxymethyl-1-(toluene-4-sulfonyl)-piperidine-4-carboxylic acid (4-trifluoromethoxy-phenyl)-amide and Example 23b which is (2R,4R)-2-Methoxymethyl-1-(toluene-4-sulfonyl)-piperidine-4-carboxylic acid (4-trifluoromethoxy-phenyl)-amide]"
16,1090,"Cn1cc(S(=O)(=O)N2CCC(F)(C(=O)Nc3ccc(OC(F)(F)F)cc3)CC2)c(C(F)(F)F)n1 [Example 63, 4-Fluoro-1-(1-methyl-3-trifluoromethyl-1H-pyrazole-4-sulfonyl)-piperidine-4-carboxylic acid (4-trifluoromethoxy-phenyl)-amide]"
17,200,"CC(C)(C)CC(=O)N1CCC(C(=O)Nc2ccc(OC(F)(F)F)cc2)CC1 [Example 21, 1-(3,3-Dimethyl-butyryl)-piperidine-4-carboxylic acid (4-trifluoromethoxy-phenyl)-amide]"
18,280,"COc1ccc(S(=O)(=O)N2CCC(F)(C(=O)Nc3ccc(OC(F)(F)F)cc3)CC2)cc1 [Example 29, 4-Fluoro-1-(4-methoxy-benzenesulfonyl)-piperidine-4-carboxylic acid (4-trifluoromethoxy-phenyl)-amide]"
